Measurements taken from PubChem BioAssay AID179 (DTP/NCI, 2004).
The source made the active and inactive calls.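 How the source made its calls: active means compounds giving half or more protection of infected cells from virus-caused growth loss, again on retest; inactive means the rest.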

Tested on: CEM cells HIV-1 protection, formazan growth assay
Assay: NCI AIDS Antiviral Assay
Settings: for IC50: measured here: growth of uninfected CEM cells
Procedure, shortened: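 Soluble formazan readout of cell growth; CEM cells ± HIV-1; 5 drug concs. ≥50% protection → retest; ≥50% again = moderately active; reproducible 100% = confirmed active.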

Row | Compound | EC50 | IC50 | outcome
1 | COc1ccc(/C=C2\SC(=S)N(/C=C3\C(=O)N(c4ccccc4)N=C3C)C2=O)cc1OC | > 200 µM | 28.2 µM | –
2 | CSC1=N/C(=C\c2cccs2)C(=O)N1CN1CCOCC1 | > 200 µM | 38 µM | –
3 | CCOC(=O)c1c(NC(=O)CCC(=O)Nc2sc(C)c(C)c2C(=O)OCC)sc(C)c1C | > 100 µM | > 100 µM | –
4 | CC(C)=CCN1c2ccc(Cl)cc2NC(=O)CC1C (centres undefined) | > 87.1 µM | 49 µM | –
5 | COc1ccc([C@H]2CC(=O)NCCCCN2)cc1 | > 200 µM | > 200 µM | –
6 | O=c1cc(CO)oc2c3c(cc(O)c12)OCC(COC1OC(CO)C(O)C(O)C1O)=CC3 (centres undefined) | > 550 µM | 288 µM | –
7 | COc1ccc2c(c1)CCCN2CCCCCCCCCCN(CCC(C)C)CCC(C)C | > 77.6 µM | 9.55 µM | –
8 | CC(=O)Nc1ccc([As](=O)(O)O)cc1NC(C)=O | > 200 µM | 28.2 µM | –
9 | CN(C)CC1CCC/C(=C\c2ccc(OC(=O)/C=C/c3ccc(Cl)c(Cl)c3)cc2)C1=O (centres undefined) | > 100 µM | 1.45 µM | –
10 | CCCCCCCCCCCCCCCC(=O)OCC(O)CO (centres undefined) | > 15.8 µM | > 15.8 µM | –
11 | O=C1CCCCC1C1(O)C(=O)Nc2cc(F)ccc21 (centres undefined) | > 955 µM | 178 µM | –
12 | COC1CC(OC2C(C)OC(OC3C(C)OC(OC4C(O)CC(O[C@H]5CC[C@@]6(C)C(=CC[C@]7(O)[C@@H]6C[C@@H](OC(=O)/C=C/c6ccccc6)[C@@]6(C)[C@]7(O)CC[C@@]6(O)C(C)=O)C5)OC4C)CC3OC)CC2OC)OC(C)C1O (some centres undefined) | > 200 µM | 37.2 µM | –
13 | Cc1c([N+](=O)[O-])ccc2c1C(=O)c1ccccc1C2=O | > 200 µM | 28.2 µM | –
14 | O=c1nc2n(c3ncccc13)CC=NN2 | > 200 µM | > 200 µM | –
15 | Cc1cc(C)nc(NS(=O)(=O)c2ccc(NC(=O)c3ccc(Cl)c4c(Nc5ccc(S(=O)(=O)N=C(N)N)cc5)c5ccccc5nc34)cc2)n1 | > 35.5 µM | 30.9 µM | –
16 | C(=C\c1ccnc2ccccc12)/c1cccnc1 | > 155 µM | 42.7 µM | –
17 | COc1c(O)c2c(=O)cc(OC)c3c4c(OC)cc(=O)c5c(O)c(OC)c(C[C@H](C)O)c(c(c1CC(C)O)c23)c54 (some centres undefined) | – | – | inactive
18 | Cc1cnc2sn(-c3ccc([N+](=O)[O-])cc3)c(=O)c2c1 | 7.59 µM | 107 µM | –
19 | Nc1ccc2c3c1cccc3c(=O)n1c3ccc(Cc4ccc5c(c4)nc4c6ccc(N)c7cccc(c(=O)n54)c76)cc3nc21 | > 100 µM | – | –
20 | Clc1ccc2c(c1)N(CCCN1CCCC13CCCCC3)c1ccccc1S2 | > 200 µM | 102 µM | –
21 | CC(=O)OC12c3ccccc3C(c3ccccc31)C1C(=O)N(c3ccccc3O)C(=O)C12 (centres undefined) | 100 µM | 105 µM | –

Row | Compound | EC50 | IC50 | outcome
22 | Cc1ccc2c(c1)S(=O)(=O)NC2=O | > 1260 µM | 1230 µM | –
23 | NS(=O)(=O)c1ccc(Nc2c3ccccc3nc3c(C(=O)NCCO)cccc23)cc1 | > 200 µM | 5.25 µM | –
24 | O/N=C1/CCCC/C1=C/C=C/c1ccccc1 | > 16.6 µM | > 16.6 µM | –
25 | CCCCCNC(=O)C1C(=O)N(CCCCC)C(=O)/C1=N\N (centres undefined) | > 12 µM | > 12 µM | –
26 | CCCC(=O)NC(Nc1ccc(S(=O)(=O)Nc2cc(C)on2)cc1)(C(=O)OCC)C(F)(F)F (centres undefined) | – | – | inactive
27 | O=[N+]([O-])c1ccccc1C1SCc2nc3ccccc3n21 (centres undefined) | > 38.9 µM | 33.9 µM | –
28 | Cc1ccc(N2C(=O)/C(=C/c3ccc(N(CCC#N)CCC#N)cc3C)N=C2c2cc([N+](=O)[O-])ccc2Cl)cc1 | – | – | inactive
29 | O=C1/C(=C/c2ccccc2)CNC/C1=C\c1ccccc1 | – | – | inactive
30 | O=c1[nH]cc(/C=N\OCCP(=O)(O)O)c(=O)[nH]1 | > 200 µM | > 200 µM | –
31 | CCOc1cc(/C=C2\N=C(c3ccccc3)OC2=O)ccc1O | > 23.4 µM | > 23.4 µM | –
32 | Nc1c(C(=O)O)nnc2ccc(Cl)cc12 | > 200 µM | 186 µM | –
33 | O=C1c2ccccc2C2(c3ccc(Cl)cc3)NCc3ccccc3CN12 (centres undefined) | > 200 µM | 12.9 µM | –
34 | C=CCNC(=O)C(O)C(O)C(=O)NCC=C (centres undefined) | > 1100 µM | > 1100 µM | –
35 | COc1ccccc1N1CCN(CCCNC(=O)c2cc(Cl)c(N)c(Cl)c2)CC1 | > 200 µM | 89.1 µM | –
36 | N/N=C(/CS(=O)(=O)c1ccc(Cl)cc1)c1ccccc1 | > 100 µM | > 100 µM | –
37 | CC12CCC3c4cc(Br)c(O)c(Br)c4CCC3C1CCC2O (centres undefined) | > 200 µM | 6.76 µM | –
38 | COC(=O)c1c([N+](=O)[O-])ncn1[C@H]1OC[C@@H](OC(C)=O)[C@@H](OC(C)=O)[C@@H]1OC(C)=O | > 200 µM | > 200 µM | –
39 | O=C1C(Br)=CC2(C=C1Br)CCNc1c(O)c3c4c(c12)=NCCC=4C=N3 | > 2 µM | 0.0891 µM | –
40 | CC(=O)O/C=C\OC1CCCC1(c1ccccc1)c1ccccc1 (centres undefined) | > 200 µM | 1.38 µM | –
41 | CCn1nc(C)c2c1C(=O)NCC(=O)N2 | > 200 µM | > 200 µM | –
42 | O=C1NCCN1/N=C/c1c(Cl)n(-c2ccccc2)c2ccccc12 | > 200 µM | 16.6 µM | –

Row | Compound | EC50 | IC50 | outcome
43 | CCCCCCCCCCC(O)CCCCCCC(=O)O (centres undefined) | – | – | inactive
44 | [N-]=[N+]=NC1CC(n2cc(Cc3ccccc3)c(=O)[nH]c2=O)OC1CO (centres undefined) | – | – | inactive
45 | O=C(/C=C/c1ccccc1)c1cc(C(=O)/C=C/c2ccccc2)c(O)cc1O | > 200 µM | 69.2 µM | –
46 | CN1C(c2ccccc2)CS(=O)(=O)CS1(=O)=O (centres undefined) | – | – | inactive
47 | COc1ccc(-c2cc(=O)c3c(OC)c(OC)c(OC)c(OC)c3o2)cc1 | > 120 µM | 110 µM | –
48 | COc1cccc2c1C(=O)c1c(O)c3c(c(O)c1C2=O)CC1(O)CC3OC1(C)OC (centres undefined) | > 4.57 µM | > 4.57 µM | –
49 | C(=C\c1ccccc1)/c1ccccc1 | > 200 µM | > 200 µM | –
50 | Cc1ccccc1NC(=O)CC(=O)NNC(Sc1ccccc1)c1cc(N=Nc2ccc(Br)cc2)ccc1O (centres undefined) | > 100 µM | 1.23 µM | –
51 | O=C1C(CN2CCCC2)CCC1CN1CCCC1 (centres undefined) | – | – | inactive
52 | O=Nc1c(O)c(S(=O)(=O)O)cc2cc(S(=O)(=O)O)ccc12 | > 200 µM | 33.1 µM | –
53 | Cn1c(=O)c2c(nc(N/N=C/c3cccc(Br)c3)n2C)n(C)c1=O | > 200 µM | > 200 µM | –
54 | CNS(=O)(=O)NNS(=O)(=O)c1ccc(F)cc1 | > 631 µM | 214 µM | –
55 | CCc1cc(Cc2cc(CC)c(NC(=O)C(=O)CC(=O)c3sc(-c4cccnc4)nc3C)c(CC)c2)cc(CC)c1NC(=O)C(=O)CC(=O)c1sc(-c2cccnc2)nc1C | > 105 µM | > 105 µM | –
56 | COc1ccc(-c2nnc3n(C)c4ccccc4n3c2=O)cc1 | > 100 µM | > 100 µM | –
57 | O=C1C2=C(c3ccccc31)C(c1ccccc1Cl)N1C(=O)CCSC1=N2 (centres undefined) | > 26.3 µM | > 26.3 µM | –
58 | O=C1CC(C(O)(C(F)(F)F)C(F)(F)Cl)CCC1C(O)(C(F)(F)F)C(F)(F)Cl (centres undefined) | – | – | inactive
59 | c1ccc2sc(SSc3nc4ccccc4s3)nc2c1 | > 200 µM | > 200 µM | –
60 | NC(=O)C1=Cc2cccn2-c2ccccc2S1 | > 123 µM | 56.2 µM | –
61 | N#CNC1=NC(N)C(c2nc3ccccc3[nH]2)=C(CCCC(=O)Nc2cccc([N+](=O)[O-])c2)N1 (centres undefined) | > 77.6 µM | > 77.6 µM | –
62 | C#CCN(Cc1ccc2nc(-c3ccccc3)c(Cl)nc2c1)c1cc(OC)c(OC)c(OC)c1 | > 7.94 µM | > 7.94 µM | –
